Experimental data reported in ChEMBL document CHEMBL5360595, “Ligand-Directed Photodegradation of Interacting Proteins: Oxidative HER2/HER3 Heterodimer Degradation with a Lapatinib-Derived Photosensitizer” (J Med Chem, 2023).
Each block holds one compound with its values, some of them ahead of it. Activity calls are given as the source filed them. The rule behind the calls is not given here.

Legend:
[1] = tested on: MDA-MB-453; assay: Induction of intracellular ROS generation in human MDA-MB-453 cells assessed as increase in green fluorescence signal at […] pretreated for 6 hrs followed by irradiation with 400 to 700 nm 100 mW/cm2 LED light for 10 min by DCFH2-DA staining based flow cytometry analysis; assay type: functional, cell-based; conditions: time 370.0 min
[2] = target: Receptor tyrosine-protein kinase erbB-2 (Homo sapiens, UniProt P04626); assay: Inhibition of HER2 (unknown origin) incubated for 40 mins by Kinase-Glo Max assay; assay type: cell-based, Sf9
Receptor tyrosine-protein kinase erbB-2, sequence (P04626 whole entry): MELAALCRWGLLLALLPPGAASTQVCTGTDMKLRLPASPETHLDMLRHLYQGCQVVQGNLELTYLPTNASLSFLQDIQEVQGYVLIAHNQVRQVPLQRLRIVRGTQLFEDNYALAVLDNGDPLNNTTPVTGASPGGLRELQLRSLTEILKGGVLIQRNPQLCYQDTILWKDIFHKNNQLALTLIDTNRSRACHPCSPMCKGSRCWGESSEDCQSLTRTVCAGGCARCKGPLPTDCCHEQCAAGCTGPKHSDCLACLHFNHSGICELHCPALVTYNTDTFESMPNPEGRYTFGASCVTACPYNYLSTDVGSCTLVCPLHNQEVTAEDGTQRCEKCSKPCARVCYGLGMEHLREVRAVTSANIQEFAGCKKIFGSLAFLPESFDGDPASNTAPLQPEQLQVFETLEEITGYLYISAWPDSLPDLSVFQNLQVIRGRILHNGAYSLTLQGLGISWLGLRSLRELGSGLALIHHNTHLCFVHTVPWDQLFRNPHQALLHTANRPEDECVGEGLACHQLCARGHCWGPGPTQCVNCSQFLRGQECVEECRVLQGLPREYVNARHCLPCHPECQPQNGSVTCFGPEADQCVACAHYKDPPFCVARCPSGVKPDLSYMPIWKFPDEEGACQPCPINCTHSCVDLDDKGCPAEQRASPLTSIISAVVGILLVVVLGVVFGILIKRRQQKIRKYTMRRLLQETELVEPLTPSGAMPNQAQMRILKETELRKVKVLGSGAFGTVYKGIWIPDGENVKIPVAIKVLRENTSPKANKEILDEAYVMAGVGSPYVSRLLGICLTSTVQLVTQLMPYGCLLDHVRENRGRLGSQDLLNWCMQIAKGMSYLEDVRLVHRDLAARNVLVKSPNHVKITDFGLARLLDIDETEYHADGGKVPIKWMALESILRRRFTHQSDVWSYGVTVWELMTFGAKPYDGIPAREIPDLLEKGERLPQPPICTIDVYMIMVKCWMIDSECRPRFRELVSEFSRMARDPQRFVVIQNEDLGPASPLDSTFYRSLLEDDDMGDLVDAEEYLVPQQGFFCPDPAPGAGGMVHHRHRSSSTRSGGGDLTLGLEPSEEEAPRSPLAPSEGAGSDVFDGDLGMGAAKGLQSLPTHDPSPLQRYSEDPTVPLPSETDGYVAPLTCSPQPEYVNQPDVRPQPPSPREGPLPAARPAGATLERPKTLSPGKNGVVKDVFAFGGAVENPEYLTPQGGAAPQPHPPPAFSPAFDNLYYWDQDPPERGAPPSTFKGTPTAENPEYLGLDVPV

[3] = Photocytotoxicity against human Lapatinib-resistant MDA-MB-453 assessed as reduction in cell viability incubated for 72 hrs in presence of LED light irradiation of 100 mW/cm2 at 400 to 700 nm by CCK-8 assay; assay type: functional, cell-based; conditions: Lapatinib-resistant MDA-MB-453, light or radiation study
[4] = tested on: MDA-MB-453; assay: Photocytotoxicity against human MDA-MB-453 cells cultured as 3D spheroids assessed as reduction in diameter of tumor spheroid size at 0.5 to 10 uM incubated for 72 hrs by bright-field microscopic analysis; assay type: functional, cell-based; conditions: dose 0.5-10 µM
[5] = tested on: MDA-MB-453; assay: Induction of intracellular ROS generation in human MDA-MB-453 cells assessed as increase in green fluorescence signal at 0.5 uM pretreated for 6 hrs followed by irradiation with 400 to 700 nm 100 mW/cm2 LED light for 10 min by DCFH2-DA staining based flow cytometry analysis; assay type: functional, cell-based; conditions: time 370.0 min
[6] = target: T1, ErbB-2/ErbB-3 heterodimer (Homo sapiens, UniProt P04626+P21860); assay: Induction of HER2/HER3 degradation in human MDA-MB-453 cells assessed as HER3 degradation preincubated for 24 hrs followed by irradiation with 400 to 700 nm 100 mW/cm2 LED light for 10 min by Western blot analysis; assay type: cell-based
T1 sequence (P04626 whole entry): as above
T1 sequence (P21860 whole entry): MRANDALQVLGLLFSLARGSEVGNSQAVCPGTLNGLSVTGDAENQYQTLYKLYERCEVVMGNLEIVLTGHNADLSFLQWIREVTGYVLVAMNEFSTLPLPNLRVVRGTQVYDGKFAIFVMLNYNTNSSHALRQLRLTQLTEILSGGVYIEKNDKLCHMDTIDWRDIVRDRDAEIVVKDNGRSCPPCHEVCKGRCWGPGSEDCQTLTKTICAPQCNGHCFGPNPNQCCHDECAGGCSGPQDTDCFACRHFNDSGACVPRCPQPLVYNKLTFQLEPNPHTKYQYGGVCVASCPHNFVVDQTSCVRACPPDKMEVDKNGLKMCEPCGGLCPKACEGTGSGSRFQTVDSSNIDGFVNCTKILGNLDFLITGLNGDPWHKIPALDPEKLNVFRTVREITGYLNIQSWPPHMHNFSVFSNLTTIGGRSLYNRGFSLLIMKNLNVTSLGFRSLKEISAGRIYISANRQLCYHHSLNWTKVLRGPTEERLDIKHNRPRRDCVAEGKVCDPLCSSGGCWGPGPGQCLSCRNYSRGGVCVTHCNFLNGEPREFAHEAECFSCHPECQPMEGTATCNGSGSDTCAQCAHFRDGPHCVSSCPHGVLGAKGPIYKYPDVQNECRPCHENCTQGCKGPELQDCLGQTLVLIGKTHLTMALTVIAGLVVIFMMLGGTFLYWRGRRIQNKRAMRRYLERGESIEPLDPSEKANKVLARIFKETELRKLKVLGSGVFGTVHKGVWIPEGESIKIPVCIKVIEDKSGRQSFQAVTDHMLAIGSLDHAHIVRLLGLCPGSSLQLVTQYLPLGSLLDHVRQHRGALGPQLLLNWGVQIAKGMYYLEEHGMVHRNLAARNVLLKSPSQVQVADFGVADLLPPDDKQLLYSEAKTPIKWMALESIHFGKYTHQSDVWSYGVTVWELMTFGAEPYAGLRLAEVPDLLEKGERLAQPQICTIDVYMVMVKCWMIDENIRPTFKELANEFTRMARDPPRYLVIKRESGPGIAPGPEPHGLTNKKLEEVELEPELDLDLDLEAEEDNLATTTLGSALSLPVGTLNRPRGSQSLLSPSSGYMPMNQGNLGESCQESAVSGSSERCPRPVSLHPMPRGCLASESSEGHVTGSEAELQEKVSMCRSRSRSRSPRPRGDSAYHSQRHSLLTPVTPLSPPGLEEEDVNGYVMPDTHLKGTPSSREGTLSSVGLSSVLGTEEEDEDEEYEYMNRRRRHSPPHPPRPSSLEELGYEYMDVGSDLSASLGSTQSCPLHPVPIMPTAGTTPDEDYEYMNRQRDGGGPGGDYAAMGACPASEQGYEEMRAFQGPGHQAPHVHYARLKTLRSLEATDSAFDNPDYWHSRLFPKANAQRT

[7] = tested on: MDA-MB-453; assay: Photocytotoxicity against human MDA-MB-453 cells cultured as 3D spheroids assessed as reduction in cell viability incubated for 72 hrs by CCK-8 assay; assay type: functional, cell-based; conditions: MDA-MB-453, 72 h
[8] = target: T1, ErbB-2/ErbB-3 heterodimer; assay: Induction of HER2/HER3 degradation in human MDA-MB-453 cells assessed as HER2 degradation preincubated for 24 hrs followed by irradiation with 400 to 700 nm 100 mW/cm2 LED light for 10 min by Western blot analysis; assay type: cell-based
[9] = tested on: MDA-MB-453; assay: Induction of apoptosis in human MDA-MB-453 cells assessed as increase in BAX/Bcl-2 ratio at 0.5 uM preincubated for 24 hrs followed by irradiation with 400 to 700 nm 100 mW/cm2 LED light for 10 min by Western blot analysis; assay type: functional, cell-based; conditions: time 1450.0 min
[10] = tested on: MDA-MB-453; assay: Photocytotoxicity against human MDA-MB-453 cells cultured as 3D spheroids assessed as reduction in diameter of tumor spheroid size at 0.5 to 10 uM pretreated with compound for 10 mins and measured after 72 hrs in presence of 400 to 700 nm 100 mW/cm2 LED light by bright-field microscopic analysis; assay type: functional, cell-based; conditions: dose 0.5-10 µM, time 4330.0 min
[11] = tested on: MDA-MB-453; assay: Photocytotoxicity against human MDA-MB-453 cells cultured as 3D spheroids assessed as reduction in cell viability pretreated for 10 mins and measured after 72 hrs in presence of 400 to 700 nm 100 mW/cm2 LED light by CCK-8 assay; assay type: functional, cell-based
[12] = tested on: MDA-MB-453; assay: Photocytotoxicity against human MDA-MB-453 cells cultured as 3D spheroids assessed as reduction in cell density at 0.5 to 10 uM incubated for 72 hrs by bright-field microscopic analysis; assay type: functional, cell-based; conditions: dose 0.5-10 µM
[13] = target: T1, ErbB-2/ErbB-3 heterodimer; assay: Induction of HER2/HER3 degradation in human MDA-MB-453 cells assessed as decrease in HER2/HER3 heterodimer preincubated for 24 hrs followed by irradiation with 400 to 700 nm 100 mW/cm2 LED light for 10 min by Co-Immunoprecipitation Analysis; assay type: cell-based; conditions: time 1450.0 min
[14] = target: Mitogen-activated protein kinase; ERK1/ERK2 (Homo sapiens) (UniProt P27361+P28482); assay: Inhibition of Erk1/2 phosphorylation in human MDA-MB-453 cells at 0.5 uM preincubated for 24 hrs followed by irradiation with 400 to 700 nm 100 mW/cm2 LED light for 10 min by Western blot analysis; assay type: cell-based; conditions: time 1450.0 min
Mitogen-activated protein kinase; ERK1/ERK2 (Homo sapiens), sequence (P27361 whole entry, looked up): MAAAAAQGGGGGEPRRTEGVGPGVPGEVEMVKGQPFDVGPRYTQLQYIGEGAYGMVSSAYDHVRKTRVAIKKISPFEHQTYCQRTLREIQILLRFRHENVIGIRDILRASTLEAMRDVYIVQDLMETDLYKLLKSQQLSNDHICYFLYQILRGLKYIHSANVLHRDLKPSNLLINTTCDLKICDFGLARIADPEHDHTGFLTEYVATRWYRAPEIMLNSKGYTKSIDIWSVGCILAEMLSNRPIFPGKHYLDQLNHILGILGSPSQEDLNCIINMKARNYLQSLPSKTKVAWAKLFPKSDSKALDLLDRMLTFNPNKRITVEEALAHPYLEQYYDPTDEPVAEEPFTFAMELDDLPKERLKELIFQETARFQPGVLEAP
Mitogen-activated protein kinase; ERK1/ERK2 (Homo sapiens), sequence (P28482 whole entry, looked up): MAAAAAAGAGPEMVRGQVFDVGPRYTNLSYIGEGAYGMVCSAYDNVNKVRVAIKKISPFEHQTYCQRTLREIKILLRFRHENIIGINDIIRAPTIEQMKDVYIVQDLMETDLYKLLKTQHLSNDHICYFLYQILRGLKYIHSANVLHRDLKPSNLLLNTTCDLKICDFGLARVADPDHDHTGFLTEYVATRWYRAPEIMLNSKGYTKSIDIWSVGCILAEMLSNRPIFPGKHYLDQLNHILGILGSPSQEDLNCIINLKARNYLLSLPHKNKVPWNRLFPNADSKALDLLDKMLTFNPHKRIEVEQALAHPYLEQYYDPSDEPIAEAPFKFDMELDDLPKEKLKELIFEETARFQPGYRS

[15] = Photocytotoxicity against human Lapatinib-resistant MDA-MB-453 assessed as inhibition of cell growth under hypoxic condition incubated for 72 hrs in presence of LED light irradiation of 100 mW/cm2 at 400 to 700 nm by CCK-8 assay; assay type: functional, cell-based; conditions: Lapatinib-resistant MDA-MB-453, light or radiation study
[16] = target: Serine/threonine-protein kinase AKT (Homo sapiens) (UniProt P31751+Q9Y243+P31749); assay: Inhibition of AKT phosphorylation in human MDA-MB-453 cells at 0.5 uM preincubated for 24 hrs followed by irradiation with 400 to 700 nm 100 mW/cm2 LED light for 10 min by Western blot analysis; assay type: cell-based; conditions: time 1450.0 min
[17] = tested on: MDA-MB-453; assay: Induction of apoptosis in human MDA-MB-453 cells assessed as decrease in Bcl-2 expression at 0.5 uM preincubated for 24 hrs followed by irradiation with 400 to 700 nm 100 mW/cm2 LED light for 10 min by Western blot analysis; assay type: functional, cell-based; conditions: time 1450.0 min
[18] = target: T1, ErbB-2/ErbB-3 heterodimer; assay: Induction of HER2/HER3 degradation in human MDA-MB-453 cells assessed as increase in HER2/HER3 heterodimer incubated for 24 hrs by Co-immunoprecipitation analysis; assay type: cell-based
[19] = tested on: MDA-MB-453; assay: Photocytotoxicity against human MDA-MB-453 cells cultured as 3D spheroids assessed as increase in dead cells by measuring red fluorescence intensity pretreated with compound for 10 mins and measured after 72 hrs in presence of 400 to 700 nm […] LED light by calcein-AM/PI staining based fluorescence analysis; assay type: functional, cell-based; conditions: time 4330.0 min
[20] = tested on: MDA-MB-453; assay: Induction of apoptosis in human MDA-MB-453 cells assessed as increase in cleaved caspase-3 expression at 0.5 uM preincubated for 24 hrs followed by irradiation with 400 to 700 nm 100 mW/cm2 LED light for 10 min by Western blot analysis; assay type: functional, cell-based; conditions: time 1450.0 min
[21] = Photocytotoxicity against human Lapatinib-resistant MDA-MB-453 cells assessed as reduction in cell viability by CCK-8 assay; assay type: functional, cell-based

Structure (SMILES): O=S(=O)(O)c1cc(O)c(O)c(S(=O)(=O)O)c1
Activity [1]: Active

IC50 [2]: 50 nM
Structure (SMILES): CC[n+]1c(/C=C/c2ccc(-c3ccc4ncnc(Nc5ccc(OCc6cccc(F)c6)c(Cl)c5)c4c3)o2)sc2ccccc21
IC50 [3]: 1560 nM

IC50 [2]: 105 nM
DC50 [6]: 584 nM
DC50 [8]: 520 nM
Activity ([8]; time 1450.0 min): Dose-Dependent Effect
Activity [13]: Active
inhibition [14]: Active
inhibition [16]: Active
Activity [18]: inactive
Structure (SMILES): CC[n+]1c(/C=C/c2ccc(-c3ccc4ncnc(Nc5ccc(OCc6cccc(F)c6)c(Cl)c5)c4c3)s2)sc2ccccc21
Activity [4]: inactive
Activity [5]: Active
IC50 [7]: > 20 µM
Activity [9]: Active
Activity [10]: Active
IC50 [11]: 2130 nM
Activity [12]: inactive
IC50 [15]: 585 nM
Activity [17]: Active
IC50 [3]: 226 nM
Activity [19]: Active
Activity [20]: Active

Structure (SMILES): CS(=O)(=O)CCNCc1ccc(-c2ccc3ncnc(Nc4ccc(OCc5cccc(F)c5)c(Cl)c4)c3c2)o1 [LAPATINIB]
IC50 [7]: > 20 µM
IC50 [21]: > 5 µM
